The subject of assay [1] is xanthine oxidase (XO). Description: HPTLC-xanthine oxidase inhibitory activity (bioautography). The format is biochemical. The following applies: for HPTLC-XO zone detection (XO inhibitors as white/yellow zones on purple background): 8 µg on plate for compounds, samples 50 mg/mL, 2 and 5 µL, documented 0–120 min.
Description: HPTLC analyses was immersed into a derivatization chamber with a mixture of phosphate buffer solution (pH 7.6) containing EDTA (1 mM), NBT (1 mM) and XO (0.1 U/mL), and incubated at 37 °C for 30 min in the dark. After drying in the air, the HPTLC plate was dipped into a phosphate buffer solution containing xanthine (1.5 mM) and incubated at 37 °C for 30 min in the dark. After drying in the air, the HPTLC plate was documented at white light in RT mode immediately (0 min), as well as at 5, 10, 15, 20, 30, 45, 60, 90, and 120 min, subsequently.
In HPTLC-XO inhibitory activity assay, the developed plate was dipped into a phosphate buffer solution containing xanthine and after incubation and drying was documented immediately (t = 0 min) and after 5, 10, 15, 20, 30, 45, 60, 90 and 120 min. Within this documentation interval, the plate was stored in the dark. The XO inhibitors were detected as white/yellow zones on a purple background (Figure 7).
A short description of assay [2]: CUPRAC assay (cupric reducing antioxidant capacity). The following applies: trolox equivalents, n = 3, average ± SD.
Description: (§1) The antioxidant activities were expressed as mg of trolox equivalents (TE) per g of hydroalcoholic extract (TE/g hydroalcoholic extract).
The CUPRAC method [32] was applied. Copper (II) sulfate pentahydrate (10 mM, 85 µL), neocuproine (7.5 mM, 85 µL) ammonium acetate buffer solution (85 µL, pH 7) and water (51 µL) were inserted in each well of a 96-well microplate. Then, either 43 µL of the DSTSs or trolox standard solutions (3.125–200 μg/mL) or water as a blank were added into each well. After incubation at room temperature for 30 min, the absorbance was measured at 450 nm.
Assay [3] in a line: Superoxide radical scavenging (SOD) activity (xanthine/XO/NBT). It is filed as biochemical. The settings on record: for SOD Activity IC50: enzymatic xanthine/XO/NBT, 560 nm, n = 3, ± SD, N.d. = Not detected.
Description: Half-maximal inhibitory concentration values (IC50) were calculated for superoxide radical scavenging and XO inhibitory activity. Inhibition values (%) were calculated based on absorbances (A) measured against blank solutions by using the following formula:Inhibition (%): (1 − (ASample − ASample Blank)/(AControl − AControl Blank)) × 100. (1)
SOD activity was performed as described in Ref. [27]. […] After incubation at 37 °C for 20 min the reaction was terminated by hydrochloric acid (0.6 M, 80 µL) and absorption was measured at 560 nm against a blank solution containing all reagents except XO.
A short description of assay [4]: ABTS assay. The settings on record: trolox equivalents, n = 3, average ± SD.
Description: as §1
ABTS assay [33] was slightly modified and then applied. Equal volumes (20 µL) of the DSTSs, trolox standard solutions (6.25–100 μg/mL) or methanol (as a blank) were placed in separate wells of a 96-well microplate plate, and ABTS reagent (280 µL) was added. The absorbance was measured at 734 nm, after incubating the well plate for 6 min at room temperature.
A short description of assay [5]: FRAP assay (ferric reducing antioxidant power). The settings on record: trolox equivalents, n = 3, average ± SD.
Description: The same range of concentration (1–2.5 mg/mL) of DSTSs was applied for DPPH, FRAP, CUPRAC and ABTS assays. […] The antioxidant activities were expressed as mg of trolox equivalents (TE) per g of hydroalcoholic extract (TE/g hydroalcoholic extract).
FRAP solution was freshly prepared by mixing 1 volume of iron (III) chloride solution (2 × 10^−2 M), 1 volume of TPTZ solution (1 × 10^−2 M) and 10 volumes of sodium acetate buffer (pH 3.6) solution. FRAP solution (280 µL) and the DSTSs (20 µL) or trolox standard solutions (20 µL; 3.125–100 μg/mL) or water as a blank (20 µL) were added in separate wells of a 96-well microplate, and after 6 min the absorbance was measured at 593 nm [31].
Assay [6] in a line: DPPH• assay (spectrophotometric antioxidant activity). The following applies: trolox equivalents, n = 3, average ± SD.
Description: The same range of concentration (1–2.5 mg/mL) of DSTSs was applied for DPPH, FRAP, CUPRAC and ABTS assays. […] The antioxidant activities were expressed as mg of trolox equivalents (TE) per g of hydroalcoholic extract (TE/g hydroalcoholic extract). […] Inhibition values (%) were calculated based on absorbances (A) measured against blank solutions by using the following formula:Inhibition (%): (1 − (ASample − ASample Blank)/(AControl − AControl Blank)) × 100.
Equal volumes (20 μL) of the DSTSs, trolox standard solutions (3.125–100 μg/mL) and methanol (as a blank) were placed in separate wells of a 96-well microplate, which was followed by the addition of DPPH solution (0.1 mM, 280 μL) to each well. After incubation in the dark at room temperature for 30 min, the absorbance was measured at 530 nm [30].
In assay [7] the target is T1, xanthine oxidase (XO) (Bos taurus, UniProt P80457).
T1 construct: purchased Sigma-Aldrich (Steinheim, Germany)
Description: Xanthine oxidase inhibitory activity (spectrophotometric). The following applies: for XO inhibitory activity (in words): spectrophotometric assay, at the applied concentrations (0.01–1 mg/mL). The format is biochemical.
Description: Half-maximal inhibitory concentration values (IC50) were calculated for superoxide radical scavenging and XO inhibitory activity. Inhibition values (%) were calculated based on absorbances (A) measured against blank solutions by using the following formula:Inhibition (%): (1 − (ASample − ASample Blank)/(AControl − AControl Blank)) × 100.
Sodium phosphate buffer (50 mM, pH 7.5, 75 µL) was placed in the wells of a 96-well microplate; this was followed by the DSTSs in different concentrations (25 µL); followed by freshly prepared XO solution (0.2 U/mL in phosphate buffer solution, 25 µL); followed by water (25 µL). Incubation of the reaction mixture at 37 °C for 15 min was followed by the addition of a substrate solution (0.15 mM xanthine, 50 µL) into the mixture and incubation at 37 °C for 30 min until the reaction was terminated by the addition of hydrochloric acid (0.5 M, 50 µL). Finally, the absorbance was measured at 290 nm against a blank, containing all reagents, except the enzyme solution.

A short description of assay [8]: HPTLC-DPPH• effect-directed analysis. The following applies: 0.4 µg on plate for compounds; STS 20 mg/mL, 2 and 5 µL.
Description: HPTLC analyses were dipped into DPPH solution (0.1%) for 3 s using a Chromatogram Immersion Device III (Camag). The plates were left to dry in the air in the dark and were documented under white light after 30 min. The compounds having antioxidant activity appeared as yellow bands on the purple background.
The image of the HPTLC plate captured at white light illumination after HPTLC-DPPH analyses was for image analyses converted to a different format using WinCATS software (Camag) and then converted to videodensitograms in fluorescence mode using VideoScan TLC/HPTLC Evaluation Software (Version 1.02.00) (Camag).
Setting [9] is: spectrophotometric, 290 nm, n = 3, ± SD, N.d. = Not detected.

Molecules are shown by their SMILES. “Also recorded” adds a separate entry of the source. Marks after values point to notes of the source that are not given here.

This note sets out measurements from paper PMC10376254, “Phytochemical and Bioactivity Studies on Hedera helix L. (Ivy) Flower Pollen and Ivy Bee Pollen” (Antioxidants, 2023).

T1 sequence (P80457 2-1332 limits assumed): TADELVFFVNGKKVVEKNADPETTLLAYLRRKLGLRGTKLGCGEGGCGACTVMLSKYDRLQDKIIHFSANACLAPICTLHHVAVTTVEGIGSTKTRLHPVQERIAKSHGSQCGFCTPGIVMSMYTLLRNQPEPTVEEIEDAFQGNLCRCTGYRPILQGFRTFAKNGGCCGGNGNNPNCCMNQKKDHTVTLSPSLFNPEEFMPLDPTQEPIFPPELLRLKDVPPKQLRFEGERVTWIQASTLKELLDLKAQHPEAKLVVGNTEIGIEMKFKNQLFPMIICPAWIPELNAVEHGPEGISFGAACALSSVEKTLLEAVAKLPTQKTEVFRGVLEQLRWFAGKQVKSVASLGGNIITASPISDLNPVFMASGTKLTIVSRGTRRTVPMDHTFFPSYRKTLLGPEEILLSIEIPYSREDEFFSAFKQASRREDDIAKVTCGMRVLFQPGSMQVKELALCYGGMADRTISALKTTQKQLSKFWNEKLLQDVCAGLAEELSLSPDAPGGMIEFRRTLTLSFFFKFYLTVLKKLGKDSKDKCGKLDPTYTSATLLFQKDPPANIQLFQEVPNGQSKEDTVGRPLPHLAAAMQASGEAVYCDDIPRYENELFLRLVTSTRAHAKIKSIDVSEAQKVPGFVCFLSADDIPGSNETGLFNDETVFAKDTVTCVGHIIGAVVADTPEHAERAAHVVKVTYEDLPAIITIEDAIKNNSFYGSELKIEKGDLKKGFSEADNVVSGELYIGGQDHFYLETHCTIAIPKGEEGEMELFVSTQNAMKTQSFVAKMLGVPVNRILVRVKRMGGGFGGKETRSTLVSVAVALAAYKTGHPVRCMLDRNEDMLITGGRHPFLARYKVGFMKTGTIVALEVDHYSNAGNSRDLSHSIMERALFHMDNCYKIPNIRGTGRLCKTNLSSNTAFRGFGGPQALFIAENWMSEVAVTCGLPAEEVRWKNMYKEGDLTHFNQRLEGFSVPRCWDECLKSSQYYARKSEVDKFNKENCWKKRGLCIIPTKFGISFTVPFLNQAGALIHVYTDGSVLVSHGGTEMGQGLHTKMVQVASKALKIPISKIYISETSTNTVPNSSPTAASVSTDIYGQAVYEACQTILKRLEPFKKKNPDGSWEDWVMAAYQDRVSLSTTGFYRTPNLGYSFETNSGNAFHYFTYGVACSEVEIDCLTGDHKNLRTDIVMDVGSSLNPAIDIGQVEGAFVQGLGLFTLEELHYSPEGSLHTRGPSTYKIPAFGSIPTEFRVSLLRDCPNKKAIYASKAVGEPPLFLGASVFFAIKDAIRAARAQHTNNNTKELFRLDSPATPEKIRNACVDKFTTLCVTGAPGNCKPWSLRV

Regarding `C[C@@H]1O[C@@H](Oc2c(-c3ccc(O)cc3)oc3cc(O)cc(O)c3c2=O)[C@H](OC(=O)/C=C/c2ccc(O)cc2)[C@H](OC(=O)/C=C/c2ccc(O)cc2)[C@H]1O` [Platanoside], in assay [1] (8 µg on plate), the “time at which the XO inhibition zone appeared on the HPTLC plate” value is listed as 20 min. In addition, the “HPTLC-XO zone detection (XO inhibitors as white/yellow zones on purple background)” value in assay [1] is “weakest XO inhibition activity; also recorded: weak yellow zone”. The CUPRAC antioxidant activity in assay [2] is 213.68 ± 8.41 ^d mg TE/g. The “SOD activity (in words)” value in assay [3] (spectrophotometric assay) is recorded as “no SOD activity”. Also, the ABTS antioxidant activity in assay [4] was 173.15 ± 0.86 ^d mg TE/g. Moreover, the FRAP antioxidant activity in assay [5] is 49.06 ± 0.91 ^de mg TE/g. The DPPH antioxidant activity in assay [6] is listed as 143.11 ± 1.31 ^d mg TE/g. Also, in assay [7], the “XO inhibitory activity (in words)” value was “no XO inhibitory activity”.

Turning to `C[C@@H]1OC(Oc2c(-c3ccc(O)cc3)oc3cc(O)cc(O)c3c2=O)[C@H](O)[C@H](O)[C@H]1O` (some centres unmarked) [Afzelin, kaempferol-3-O-rhamnopyranoside], the “HPTLC-XO zone detection (XO inhibitors as white/yellow zones on purple background)” value in assay [1] is “appeared immediately as yellow zones and lasted for 120 min”. Also, the CUPRAC antioxidant activity in assay [2] was 171.40 ± 8.24 ^e mg TE/g. For the same compound, in assay [3], the “SOD Activity IC50” value was 20.61 ± 1.30 ^b µg/mL. Further, in assay [4], the ABTS antioxidant activity was 104.71 ± 0.25 ^e mg TE/g. Besides, the FRAP antioxidant activity in assay [5] is given as 58.54 ± 2.37 ^d mg TE/g. For the same compound, the DPPH antioxidant activity in assay [6] was 149.35 ± 4.28 ^d mg TE/g.

Turning to `Oc1ncnc2[nH]ncc12` [Allopurinol, allopurinol, reference compound], the “HPTLC-XO zone detection (XO inhibitors as white/yellow zones on purple background)” value in assay [1] was “immediately as a white zone, which lasted for 120 min”. The “SOD Activity IC50” value in assay [3] is recorded as 3.03 ± 0.10 ^a µg/mL; in assay [3] (listed as allopurinol) it was 3.0 µg/mL.

With `O=c1c(O[C@@H]2O[C@H](CO)[C@H](O)[C@H](O)[C@H]2O[C@@H]2O[C@H](CO)[C@@H](O)[C@H](O)[C@H]2O)c(-c2ccc(O)c(O)c2)oc2cc(O)cc(O)c12` [quercetin 3-O-β-glucopyranosyl-(1→2)-β-galactopyranoside], the “HPTLC-XO zone detection (XO inhibitors as white/yellow zones on purple background)” value in assay [1] was “appeared immediately as yellow zones and lasted for 120 min”. Further, the CUPRAC antioxidant activity in assay [2] is 560.53 ± 14.74 ^c mg TE/g. Further, the “SOD Activity IC50” value in assay [3] is 5.09 ± 0.36 ^a µg/mL. Also, the ABTS antioxidant activity in assay [4] was 242.13 ± 5.88 ^c mg TE/g. In addition, in assay [5], the FRAP antioxidant activity is 227.30 ± 2.65 ^c mg TE/g. Further, in assay [6], the DPPH antioxidant activity is 400.21 ± 11.78 ^c mg TE/g. Besides, in assay [7], the “XO inhibitory activity (in words)” value is “low XO inhibitory activity”. For the same compound, in assay [7] (setting [9]), the IC50 is 117 µM.

Regarding `O=C(/C=C/c1ccc(O)c(O)c1)O[C@@H]1C[C@](O)(C(=O)O)C[C@@H](O)[C@H]1O` [Chlorogenic acid, chlorogenic acid, reference compound], the “HPTLC-XO zone detection (XO inhibitors as white/yellow zones on purple background)” value in assay [1] was “appeared immediately as yellow zones and lasted for 120 min”. Half-maximal inhibition in assay [7] (setting [9]) (IC50) was put at 35.8 µM.

`O=C(/C=C/c1ccc(O)c(O)c1)O[C@@H]1CC(O)(C(=O)O)C[C@@H](OC(=O)/C=C/c2ccc(O)c(O)c2)C1O` (some centres unmarked) [3,5-Dicaffeoylquinic acid, 3,5-dicaffeoylquinic acid, reference compound]: in assay [1], the “HPTLC-XO zone detection (XO inhibitors as white/yellow zones on purple background)” value was “appeared immediately as yellow zones and lasted for 120 min”. Further, the CUPRAC antioxidant activity in assay [2] was 760.83 ± 12.84 ^b mg TE/g. In assay [3], the “SOD Activity IC50” value is recorded as 5.87 ± 0.32 ^a µg/mL. In assay [4], the ABTS antioxidant activity is on record as 701.64 ± 13.63 ^b mg TE/g. Besides, the FRAP antioxidant activity in assay [5] is 542.36 ± 15.41 ^b mg TE/g. For the same compound, the DPPH antioxidant activity in assay [6] was 665.53 ± 1.96 ^b mg TE/g. Also, the “XO Inhibitory Activity IC50” value in assay [7] (setting [9]) is 17.47 ± 2.23 ^c µg/mL. Moreover, the “HPTLC-DPPH intensity of yellow zone” value in assay [8] is “slightly lower intensity”.
